This is an account of results in patent publication US12339274B2, “Blood coagulometer and method” (priority 2016, dated 2025).

Like-named read-outs stand apart in the source and are kept apart here.

This experiment deals with human whole blood. Type of experiment: cell-based.

Source text: One or more samples of human whole blood were collected by a licensed medical doctor from a healthy volunteer known to refrain from the taking of anticoagulant medications such as, for example, aspirin. Written informed consent of the donors was collected under an approved protocol from the Internal Review Board at the UT Health Science Center. Human whole blood was collected, by antecubital venipuncture, into vials 12 containing the anticoagulant sodium citrate (3.8%, applied at a 9:1 blood to citrate ratio).
Embodiments of the apparatus 10 of the present invention may also be used to characterize clot contraction. […] The test volume was 27 μL; however, to ensure filling of the test chamber and complete immersion within the blood sample 50 of the wetted portion 24/plate 15 of the probe 20 disposed within the vial 15, a volume of 250 μL of blood was injected into a vial 15 comprising glass. Data recording began once the wetted portion 24/plate 15 was lowered into position such that it was immersed within the blood sample 50 and was 1 mm away from the lower member 50, both of which comprised acrylic. Deflection of the wire portion 21 of the probe 20 typically began after 360 to 480 seconds, and data collection was concluded after 3,600 seconds (1 hour).

Regarding `C=C1[C@@H](C)[C@H]2[C@H](Cc3ccccc3)NC(=O)[C@]23[C@H](OC(C)=O)/C=C/[C@@](C)(O)C(=O)[C@@H](C)C/C=C/[C@H]3[C@@H]1O` [cytochalasin D], the contraction force result (increasing concentrations in human whole blood) is “dose-dependent decrease”.
`c1nnn[nH]1` [tetrazole]: the contraction force entry (1 mMol in human whole blood, FIG. 41) is “enhanced contraction force” and the contraction force result (60 mMol in human whole blood, FIG. 41) is “reduced contraction force”.
